Source: patent US8435393B2, “Instrument and system for pharmacologic measurement and well vessel used therein” (Panasonic Corporation, priority 2003, dated 2013)

Experiments:
[1] = system: carbachol (CCh) sensitive ion channel; assay: Intracellular potential response of an HEK cell by the patch clamp method (Comparative Example 2); assay type: cell-based, human; conditions: HEK-293 cell expressing CCh sensitive ion channel; CCh 100 μM; in 6 sec after CCh is dropped; glass patch pipette
Experimental: (§1) The solution holding section 17 was filled with a culture fluid and 8000 HEK cells are seeded in the holding section in dispersion. The culture fluid used was HEPES buffer DMEM+10 wt % FBS. A cell was sucked from the back surface to be thereby fitted into the hole and thereafter, the culture fluid was replaced with a measurement solution. A composition of the measurement solution was such that Ringer's solution was contained as a base, a Ca concentration was adjusted to 2 mM and an osmotic pressure was set to […].
In FIG. 13, as Comparative Example 2, there is shown results obtained by measurement of a response of an intracellular potential in an HEK cell for the same medicine in a similar way while a glass patch pipette is attached to the cell using a patch clamp method, which is a conventional method for measurement of an intracellular potential. A CCh concentration was 100 μM in a similar way. […] There is observed a noise change (from F to G in FIG. 13) due to a CCh sensitive channel response.

[2] = system: carbachol (CCh) sensitive ion channel; assay: Extracellular potential (voltage noise) recording of HEK cells with the instrument of Example 1; assay type: cell-based, human; conditions: HEK-293 cells; Ringer's solution replaced with Ringer's solution containing CCh 100 μM; FIG. 11 between F1 and G1
Experimental: as §1
FIG. 11 is a graph showing a voltage noise when the above Ringer's solution was replaced with a Ringer's solution containing CCh 100 μM using Example 1. […] It was recognized that a voltage noise is increased by CCh dropping (in FIG. 11, between F1 and G1). On the other hand, in FIG. 12, there is shown results obtained by conducting a similar experiment in a convention method (Comparative Example 1). The measurement was obtained in a procedure in which a first stage amplification in the preamplifier was multiplication by a factor of 100 and thereafter further amplified by a factor of 100. LPF was set at 5 kHz. A medicine (CCh) was dropped only for a time expressed with an open square in the figure.

For `C[N+](C)(C)CCOC(N)=O` [CCh, carbachol], the “Depolarization of intracellular potential” value [1] was “about 10 mV” and the “Voltage noise change on CCh dropping” value [2] was “increased”.
